Test results as given in patent US20250127775A1, “METHOD OF INDUCING DENDRITIC AND SYNAPTIC GENESIS IN NEURODE[…] DISEASES” (priority 2018, published 2025).

How the values were obtained:
[1] = test system: cortical rat neurons; assay: Dendrite and synaptic connections of rat cortical neurons after exposure to tryptamines (FIG. 2); format: cell-based; conditions: 24 hours of exposure, FIG. 2 left to right
Excerpt: The effect is dramatic and fast even with very small doses of the compounds which is a desirable profile for a therapeutic molecule. Looking at FIG. 2 from left to right, it is apparent that LSD>DMT>DOI>Vehicle with regards to dendritic and synaptic generation. Potential therapeutics that can be used in the present invention are tryptamines such as tryptamines and phenethylamines selected from the group, N, N-dimethyltryptamine, 5-methoxy-N, N-dimethyltryptamine, Ketamine, noribogaine, psilocin 3,4-methylenedioxymethamphetamine, mescaline, psilocin, and psilocybin. The dose concentration will vary by molecule type but can range for 0.00001 to 250 milligrams to kilograms (mg/kg) of body weight with 0.01 to 50 mg/kg being preferred.

[2] = test system: rat neurons; assay: SEM images of rat neurons after exposure to toxic amyloid peptide (FIG. 1); format: cell-based; conditions: exposure for 4 days to 250 micro molar toxic peptide
Excerpt: At this resolution one can see copious dendritic structures, the round dark circles. The resolution is not high enough to visualize synaptic connections. The image labeled A is of rat neurons after exposure for 4days to 250 micro molar concentrations of toxic peptide. […] This model emulates what is seen in the human versions of AD disease.

## CN(C)CCc1c[nH]c2ccccc12 [DMT, N, N-dimethyltryptamine]
[1]
  rank order with regards to dendritic and synaptic generation: LSD>DMT>DOI>Vehicle

## COc1cc(CC(C)N)c(OC)cc1I (stereo not drawn) [DOI]
[1]
  rank order with regards to dendritic and synaptic generation: LSD>DMT>DOI>Vehicle

## A 42 amyloid proteins: toxic amyloid protein used to compromise rat neurons, dendrites and synaptic connections
[2]
  degradation of the dendrites (and synaptic connections): significant degradation of the dendrites
